# Where two headings read alike, the source gives them in different places.
# What was measured:
# [1] = biological target: Recombinant human FGFR1 (Homo sapiens, UniProt P11362); experiment: Transcreener Kinase Assay of FGFR1; type: biochemical
# Method: (§1) • 1. […] Prepare Solution • Test compounds were solved in DMSO and were diluted with assay buffer to 5 folds of final concentration keeping the DMSO concentration at 5%. Further dilution are needed to make final concentrations are at 1, 0.33, 0.11, 0.037, 0.012, 0.004, 0.0014, 0.0005 μM; (the final concentration of DMSO is 1%). • Enzyme/Substrate stock Preparation: Recombinant human FGFR1 and Poly E4Y are both diluted in assay buffer.
# • 3. Enzymatic Reaction • In a 96-well plate, add 5 μL of diluted solution of test compound or control solution. (positive control: 5 μL of 5% DMSO; negative control: 5 μL of 500 mM EDTA) into desired wells respectively; • Add 10 μL of Enzyme/Substrate stock into each well; • Add 10 μL of ATP Diluents to initiate the enzyme reaction and vortex the plate immediately on a plate shaker; • For the wells to make standard curve, add 5 μL of 5% DMSO, 10 μL of assay buffer and 10 μL of ATP standard curve stock. • Incubate the plate for 45 min at 28° C. on a plate shaker in a low speed. • 4. […] Excitation wavelength: 610 nm, Emission wavelength: 670 nm. • 5. Data Analysis
# (§2) [formula] Note: • [ADP] in Compound well represents the ADP concentration in test compound well. • [ADP] in Positive control well represents the ADP concentration in 5% DMSO well • Conversion of mP value to ADP concentration is calculated based on the formula which determined by standard curve. And mP value is measured by following the instruction provided by BellBrook Labs. (www.bellbrooklabs.com). • 6. IC50: determined with add-in software for Microsoft Excel, XLfit™ (version 2.0) from ID Business Solutions (Guildford, UK).
# [2] = biological target: Recombinant human FGFR2 (Homo sapiens, UniProt P21802); experiment: Transcreener Kinase Assay of FGFR2; type: biochemical
# Method: Example 24: Transcreener Kinase Assay of FGFR2
# as §1, with “FGFR2” for “FGFR1”, “buffer. The final concentration is 0.3 ng/μL for FGFR2 and 62.5 ng/μL for Poly E4Y. The mixture is being kept in ice before use; • Prepare ATP Diluents, 10 mM ATP is diluted in assay buffer, the final concentration is 25 μM; • Prepare ADP Diluents: diluted ADP (500 μM) in assay buffer, the final concentration is 25 μM; • Prepare ATP standard curve stock as following:” for “buffer.”
# • 3. Enzymatic Reaction • In a 96-well plate, add 5 μL of deluted solution of test compound or control solution. (positive control: 5 μL of 5% DMSO; negative control: 5 μL of 500 mM EDTA) into desired wells respectively; • Add 10 μL of Enzyme/Substrate stock into each well; • Add 10 μL of ATP Diluents to initiate the enzyme reaction and vortex the plate immediately on a plate shaker; • For the wells to make standard curve, add 5 μL of 5% DMSO, 10 μL of assay buffer and 10 μL of ATP standard curve stock. • Incubate the plate for 45 min at 28° C. on a plate shaker in a low speed. • 4. Stoping Reaction and Detecting ADP • Detection Mix Preparation: The mixture is made by dilution with MilliQ water; as following: ADP Alexa633 tracer (1:100), ADP antibody (1:158), and stop & detect buffer (1:10); • Tracer Only control Preparation: The mixture is made by dilution with MilliQ water; as following: ADP Alexa633 tracer (1:100), and stop & detect buffer (1: 10) • No Tracer control Preparation: stop & detect buffer is diluted with MilliQ water; by 10 fold. • Add 25 μL of detection mix, Tracer Only control and No Tracer control into corresponding wells, respectively; • Incubate at 28° C. for 1 h, on a plate shaker in a low speed; • Measure florescence polarization (mP) on TECAN F500. Excitation wavelength: 610 nm, Emission wavelength: 670 nm. • 5. Data Analysis
# as §2
# [3] = biological target: FGFR3 kinase (Homo sapiens, UniProt P22607); experiment: Z-Lyte Kinase Assay of FGFR3; type: biochemical
# Method: Example 25: Z-Lyte Kinase Assay of FGFR3
# • 1. Materials and Reagents:
# • 2. Reaction Steps: Plate Map
# • 3. […] The final concentrations are 1, 0.33, 0.11, 0.037, 0.012, 0.004, 0.0014, 0.00046 μM, and the final concentration of DMSO is 2%. • 3) Kinase/Peptide Mixture (P/K solution): Prepare Kinase/Peptide Mixture by diluting the kinase to 0.7 μg/ml and the Z-LYTE™ Tyr 4 peptide to 4 μM in 1.33× Kinase Buffer. Mix gently by pipetting. • 4) Phospho-peptide Solution (PP solution): Add 0.4 μl of Z-LYTE™ Tyr 4 Phospho-peptide to 99.6 μl of 1.33× Kinase Buffer. • 5) ATP Solution: Prepare ATP Solution by diluting the 10 mM of ATP in 1.33× Kinase Buffer to 300 uM. • 6) Development Solution: Dilute Development Reagent B with Development Buffer as 1:128. • 4. […] Shake the plate for 30 Sec and centrifuge (1500 rpm, 1 min). • Seal the plate to protect from the light and incubate the plate for 1 hour at RT (25-30° C.). • 2) Development reaction • Add 5 μl of the Development solution to all wells. • Shake the plate for 30 Sec and centrifuge (1500 rpm, 1 min). • Seal the plate to protect from the light and incubate the plate for 1 hour at RT (25-30° C.). • 3) Stop and Read • Add 5 μl of the Stop reagent to all wells. • Shake the plate for 30 Sec and centrifuge (1500 rpm, 1 min). • Measure the value of Coumarin (Ex400 nm, Em445 nm) and fluorescein (Ex400 nm, Em520 nm), respectively. • 5. Data Analysis Emission Ratio(ER)=Coumarin Emission (445 nm)/Fluorescein Emission (520 nm) % Phosphorylation=1−[ER×C3520nm-C3445nm]/[(C1445nm-C3445nm)+ER×(C3520nm−C1520nm)] Inhibition rate (IR)=1−% Photest Cpd/% PhoC2 • 6. IC50 Value: determined with add-in software for Microsoft Excel, XLfit™ (version 2.0) from ID Business Solutions (Guildford, UK)
# [4] = tested on: KG-1; experiment: Cellular Proliferation Assay (Cell Counting Kit-8), KG-1; type: cell-based; settings: Homo sapiens; KG-1 cells, 72 hours; read-out: KG1 IC50
# Method: (§3) Example 26: Cellular Proliferation Assay
# (§4) • 1. Cell Line • KG-1 (ATCC Accession No. CCL-246), • SNU-16 (ATCC Accession No. CRL-5974), • RT-112 (ECACC Accession No. 85061106) • 2. Assay Protocol • FGFR related cancer cell proliferation is measured in 96-well plates using Cell Counting Kit-8 (Dojindo CK04-13). • Seed 30000 cells/well of KG1, 5000 cells/well of SNU16, and 1000 cells/well of RT112 in a volume of 100 μL/well in growth media. • After 24 hours, dilute the test compound to 10, 3.3, 1.1, 0.37, 0.12, 0.04, 0.013, 0.004 μM, keeping the DMSO concentration at 5%. • Add 10 μL of 8-point compound series to the wells of culturing cells. • Incubate at 37° C. and 5% CO2 for 72 hours • Add 10 μL/well of CCkit8 and incubate at 37° C. and 5% CO2 for an hour • Detect the optical density of each well at 450 nm on Labsystems Multiskan K3. • 3. Data Analysis
# (§5) [formula] Note: • ODcompound well represents the optical density of cells treated with compound. • ODcell well represents the optical density of cells without compounds treatment.(only 0.5% DMSO) • ODcontrol well represents the optical density of culture media background • IC50: determined with add-in software for Microsoft Excel, XLfit™ (version 2.0) from ID Business Solutions (Guildford, UK).
# [5] = tested on: RT-112; experiment: Cellular Proliferation Assay (Cell Counting Kit-8), RT-112; type: cell-based; settings: Homo sapiens; RT-112 cells, 72 hours
# Method: as §3, §4, §5
# [6] = tested on: SNU-16; experiment: Cellular Proliferation Assay (Cell Counting Kit-8), SNU-16; type: cell-based; settings: Homo sapiens; SNU-16 cells, 72 hours
# Method: as §3, §4, §5
# Recombinant human FGFR1, sequence (P11362 22-822): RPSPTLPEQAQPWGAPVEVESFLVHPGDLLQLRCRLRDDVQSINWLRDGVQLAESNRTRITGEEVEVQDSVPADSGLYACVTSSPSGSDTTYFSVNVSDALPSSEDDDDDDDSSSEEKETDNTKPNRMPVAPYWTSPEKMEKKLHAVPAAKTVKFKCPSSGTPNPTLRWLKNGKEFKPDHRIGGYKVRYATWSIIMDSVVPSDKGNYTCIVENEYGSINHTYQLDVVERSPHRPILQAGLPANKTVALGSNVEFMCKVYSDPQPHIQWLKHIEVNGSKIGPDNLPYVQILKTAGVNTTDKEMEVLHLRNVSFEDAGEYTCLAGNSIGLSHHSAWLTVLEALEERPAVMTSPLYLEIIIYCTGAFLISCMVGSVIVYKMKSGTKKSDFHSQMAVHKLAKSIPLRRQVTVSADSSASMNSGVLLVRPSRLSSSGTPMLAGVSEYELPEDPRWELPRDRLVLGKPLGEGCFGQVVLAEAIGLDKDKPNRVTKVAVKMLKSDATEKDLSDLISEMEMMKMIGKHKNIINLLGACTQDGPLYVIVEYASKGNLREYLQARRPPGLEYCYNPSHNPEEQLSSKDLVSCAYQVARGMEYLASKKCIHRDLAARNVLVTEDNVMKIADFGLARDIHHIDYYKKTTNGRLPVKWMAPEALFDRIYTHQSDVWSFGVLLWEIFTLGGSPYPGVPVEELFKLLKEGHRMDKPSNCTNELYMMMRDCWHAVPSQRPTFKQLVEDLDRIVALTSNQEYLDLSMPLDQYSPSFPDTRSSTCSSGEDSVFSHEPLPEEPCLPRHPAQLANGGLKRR
# Recombinant human FGFR2, sequence (P21802 22-821): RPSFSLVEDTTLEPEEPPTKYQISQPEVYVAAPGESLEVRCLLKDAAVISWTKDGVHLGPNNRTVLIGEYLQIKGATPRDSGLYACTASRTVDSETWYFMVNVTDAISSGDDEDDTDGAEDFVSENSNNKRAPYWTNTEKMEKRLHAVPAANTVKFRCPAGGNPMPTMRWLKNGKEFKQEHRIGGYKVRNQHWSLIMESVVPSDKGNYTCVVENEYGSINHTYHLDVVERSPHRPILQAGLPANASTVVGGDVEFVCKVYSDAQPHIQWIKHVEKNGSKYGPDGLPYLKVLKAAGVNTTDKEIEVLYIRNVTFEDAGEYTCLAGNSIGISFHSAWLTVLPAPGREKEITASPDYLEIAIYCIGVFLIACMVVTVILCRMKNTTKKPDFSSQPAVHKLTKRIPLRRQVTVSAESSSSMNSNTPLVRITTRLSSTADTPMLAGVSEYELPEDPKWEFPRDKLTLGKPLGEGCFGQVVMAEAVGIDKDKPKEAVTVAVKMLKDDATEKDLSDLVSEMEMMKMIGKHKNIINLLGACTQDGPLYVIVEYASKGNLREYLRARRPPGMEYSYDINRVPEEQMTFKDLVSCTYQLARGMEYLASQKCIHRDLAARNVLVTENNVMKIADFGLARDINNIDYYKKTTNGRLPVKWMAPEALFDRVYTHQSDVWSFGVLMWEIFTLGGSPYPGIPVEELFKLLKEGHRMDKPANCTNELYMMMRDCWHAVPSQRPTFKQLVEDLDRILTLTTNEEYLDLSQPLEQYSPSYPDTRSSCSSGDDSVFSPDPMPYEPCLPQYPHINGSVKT
# FGFR3 kinase, sequence (P22607 23-806): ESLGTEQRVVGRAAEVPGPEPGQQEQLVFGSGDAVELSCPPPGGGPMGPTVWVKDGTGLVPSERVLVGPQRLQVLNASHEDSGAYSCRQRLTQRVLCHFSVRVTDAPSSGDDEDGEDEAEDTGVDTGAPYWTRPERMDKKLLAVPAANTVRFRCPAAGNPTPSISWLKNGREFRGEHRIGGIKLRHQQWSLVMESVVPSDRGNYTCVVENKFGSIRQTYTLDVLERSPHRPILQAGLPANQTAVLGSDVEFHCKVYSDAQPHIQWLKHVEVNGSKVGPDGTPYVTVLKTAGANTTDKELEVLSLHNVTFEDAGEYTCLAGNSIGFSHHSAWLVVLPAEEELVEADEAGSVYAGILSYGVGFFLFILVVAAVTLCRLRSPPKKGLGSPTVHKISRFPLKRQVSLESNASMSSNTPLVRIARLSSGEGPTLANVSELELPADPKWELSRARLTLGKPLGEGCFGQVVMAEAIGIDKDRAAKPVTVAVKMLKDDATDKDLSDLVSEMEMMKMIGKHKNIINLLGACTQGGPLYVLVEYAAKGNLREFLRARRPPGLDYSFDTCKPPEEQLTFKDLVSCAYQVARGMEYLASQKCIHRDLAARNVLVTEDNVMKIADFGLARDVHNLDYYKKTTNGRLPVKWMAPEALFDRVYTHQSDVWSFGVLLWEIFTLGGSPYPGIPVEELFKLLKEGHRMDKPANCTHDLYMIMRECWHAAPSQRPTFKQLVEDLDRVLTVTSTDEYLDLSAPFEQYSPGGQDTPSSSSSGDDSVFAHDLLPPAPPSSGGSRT
compound,measurement,setting,value
CNC(=O)c1cc(COc2cnc(Nc3ccc(-n4nccn4)cc3)nc2)c(Cl)c(OC)c1 [Compound 233],IC50,[1]; read-out: FGFR1 (FP) IC50,98 nM
same,IC50,[2]; read-out: FGFR2 (FP) IC50,31 nM
same,IC50,[3],310 nM
same,IC50,[4],58 nM
same,IC50,[5],121 nM
same,IC50,[6],63 nM
CNC(=O)c1cc(COc2cnc(Nc3ccc(-c4cnn(C)c4)cc3)nc2)c(F)c(OC)c1 [Compound 228],IC50,[1]; read-out: FGFR1 (FP) IC50,29 nM
same,IC50,[2]; read-out: FGFR2 (FP) IC50,18 nM
same,IC50,[3],120 nM
same,IC50,[4],94 nM
same,IC50,[5],270 nM
same,IC50,[6],97 nM
CNC(=O)c1cc(OC)c(Cl)c(COc2cnc(Nc3ccc(N4C[C@@H](C)N[C@@H](C)C4)cc3)nc2)c1F [Compound 290],IC50,[1]; FP,10 nM
same,IC50,[2]; FP,7 nM
same,IC50,[3]; Z-lyte,11 nM
same,IC50,[4],6 nM
same,IC50,[5],12 nM
same,IC50,[6],11 nM
CNC(=O)c1cc(COc2cnc(Nc3ccc(N4CCC(N(C)C)CC4)cc3)nc2)c(F)c(OC)c1 [Compound 264],IC50,[1]; read-out: FGFR1 (FP) IC50,10 nM
same,IC50,[2]; read-out: FGFR2 (FP) IC50,5 nM
same,IC50,[3],6 nM
same,IC50,[4],7 nM
same,IC50,[5],8 nM
same,IC50,[6],8 nM
CNC(=O)c1cc(COc2cnc(Nc3cnc(N4C[C@@H](C)N[C@@H](C)C4)nc3)nc2)c(Cl)c(OC)c1 [Compound 276],IC50,[1]; read-out: FGFR1 (FP) IC50,20 nM
same,IC50,[2]; read-out: FGFR2 (FP) IC50,23 nM
same,IC50,[3],21 nM
same,IC50,[4],83 nM
same,IC50,[5],140 nM
same,IC50,[6],21 nM
CCN(CC)CCc1cccc(Nc2ncc(OCc3cc(C(=O)NC)cc(OC)c3F)cn2)c1 [Compound 243],IC50,[1]; read-out: FGFR1 (FP) IC50,20 nM
same,IC50,[2]; read-out: FGFR2 (FP) IC50,9 nM
same,IC50,[3],9 nM
same,IC50,[4],69 nM
same,IC50,[5],15 nM
same,IC50,[6],6 nM
CCN1CCC(c2ccc(Nc3ncc(OCc4cc(C(=O)NC)cc(OC)c4F)cn3)cc2)CC1 [Compound 252],IC50,[1]; read-out: FGFR1 (FP) IC50,21 nM
same,IC50,[2]; read-out: FGFR2 (FP) IC50,22 nM
same,IC50,[3],16 nM
same,IC50,[4],28 nM
same,IC50,[5],6 nM
same,IC50,[6],8 nM
CNC(=O)c1cc(COc2cnc(Nc3cccc(NC(C)=O)c3)nc2)c(F)c(OC)c1 [Compound 216],IC50,[1]; read-out: FGFR1 (FP) IC50,10 nM
same,IC50,[2]; read-out: FGFR2 (FP) IC50,7 nM
same,IC50,[3],11 nM
same,IC50,[4],24 nM
same,IC50,[5],132 nM
same,IC50,[6],20 nM
CNC(=O)c1cc(COc2cnc(Nc3ccc4c(c3)NCC4)nc2)c(F)c(OC)c1 [Compound 214],IC50,[1]; read-out: FGFR1 (FP) IC50,67 nM
same,IC50,[2]; read-out: FGFR2 (FP) IC50,25 nM
same,IC50,[3],19 nM
same,IC50,[4],6 nM
same,IC50,[5],90 nM
same,IC50,[6],27 nM
CNC(=O)c1cc(COc2cnc(Nc3ccc(-n4ccnn4)cc3)nc2)c(F)c(OC)c1 [Compound 222],IC50,[1]; read-out: FGFR1 (FP) IC50,39 nM
same,IC50,[2]; read-out: FGFR2 (FP) IC50,12 nM
same,IC50,[3],40 nM
same,IC50,[4],52 nM
same,IC50,[5],83 nM
same,IC50,[6],34 nM
CCN1CCN(c2ccc(Nc3ncc(C#Cc4cc(C(=O)NC)cc(OC)c4F)cn3)cc2OC)CC1 [Compound 307],IC50,[1]; FP,19 nM
same,IC50,[2]; FP,17 nM
same,IC50,[3]; Z-lyte,21 nM
same,IC50,[4],5 nM
same,IC50,[5],5 nM
same,IC50,[6],1 nM
CNC(=O)c1cc(COc2cnc(Nc3ccc(C4CCNCC4)cc3)nc2)c(F)c(OC)c1 [Compound 231],IC50,[1]; read-out: FGFR1 (FP) IC50,16 nM
same,IC50,[2]; read-out: FGFR2 (FP) IC50,16 nM
same,IC50,[3],11 nM
same,IC50,[4],58 nM
same,IC50,[5],9 nM
same,IC50,[6],8 nM
CNC(=O)c1cc(COc2cnc(Nc3cnc(N4C[C@@H](C)N[C@@H](C)C4)c(F)c3)nc2)c(Cl)c(OC)c1 [Compound 292],IC50,[1]; FP,13 nM
same,IC50,[2]; FP,11 nM
same,IC50,[3]; Z-lyte,14 nM
same,IC50,[4],46 nM
same,IC50,[5],70 nM
same,IC50,[6],17 nM
CNC(=O)c1cc(COc2cnc(Nc3ccc([C@@H]4CCCNC4)nc3)nc2)c(Cl)c(OC)c1 [Compound 244],IC50,[1]; read-out: FGFR1 (FP) IC50,10 nM
same,IC50,[2]; read-out: FGFR2 (FP) IC50,10 nM
same,IC50,[3],13 nM
same,IC50,[4],362 nM
same,IC50,[5],585 nM
same,IC50,[6],115 nM
CCN(CC)CCOc1ccc(Nc2ncc(OCc3cc(C(=O)NC)cc(OC)c3F)cn2)cc1 [Compound 262],IC50,[1]; read-out: FGFR1 (FP) IC50,43 nM
same,IC50,[2]; read-out: FGFR2 (FP) IC50,20 nM
same,IC50,[3],21 nM
same,IC50,[4],37 nM
same,IC50,[5],133 nM
same,IC50,[6],29 nM
CCN(CC)CCNC(C)c1ccc(Nc2ncc(OCc3cc(C(=O)NC)cc(OC)c3Cl)cn2)cc1 (stereo not drawn) [Compound 295],IC50,[1]; FP,13 nM
same,IC50,[2]; FP,13 nM
same,IC50,[3]; Z-lyte,19 nM
same,IC50,[4],40 nM
same,IC50,[5],337 nM
same,IC50,[6],104 nM

# Reference: US9701680B2, “Pyrimidine and pyridine compounds and their usage” (HUTCHISON MEDIPHARMA LIMITED, priority 2013, dated 2017)
